# Data published in doi:10.1101/2025.10.23.684218v2, “Development of a dual chemical probe for the USP16 and HDAC6 zinc-finger ubiquitin-binding domain” (biorxiv, 2025).
# Experiments:
# [1] = target: USP16-UBD (USP16 8-185) (Homo sapiens, UniProt Q9Y5T5); assay: ITC; type: binding
# [2] = target: T1, NanoLuc-tagged HDAC6 (Homo sapiens, UniProt Q9UBN7); assay: NanoBRET displacement of HaloTag-ISG15; type: cell-based
# T1 construct: N-terminal NanoLuc fusion in HEK293T
# T1 sequence (Q9UBN7 1-1215): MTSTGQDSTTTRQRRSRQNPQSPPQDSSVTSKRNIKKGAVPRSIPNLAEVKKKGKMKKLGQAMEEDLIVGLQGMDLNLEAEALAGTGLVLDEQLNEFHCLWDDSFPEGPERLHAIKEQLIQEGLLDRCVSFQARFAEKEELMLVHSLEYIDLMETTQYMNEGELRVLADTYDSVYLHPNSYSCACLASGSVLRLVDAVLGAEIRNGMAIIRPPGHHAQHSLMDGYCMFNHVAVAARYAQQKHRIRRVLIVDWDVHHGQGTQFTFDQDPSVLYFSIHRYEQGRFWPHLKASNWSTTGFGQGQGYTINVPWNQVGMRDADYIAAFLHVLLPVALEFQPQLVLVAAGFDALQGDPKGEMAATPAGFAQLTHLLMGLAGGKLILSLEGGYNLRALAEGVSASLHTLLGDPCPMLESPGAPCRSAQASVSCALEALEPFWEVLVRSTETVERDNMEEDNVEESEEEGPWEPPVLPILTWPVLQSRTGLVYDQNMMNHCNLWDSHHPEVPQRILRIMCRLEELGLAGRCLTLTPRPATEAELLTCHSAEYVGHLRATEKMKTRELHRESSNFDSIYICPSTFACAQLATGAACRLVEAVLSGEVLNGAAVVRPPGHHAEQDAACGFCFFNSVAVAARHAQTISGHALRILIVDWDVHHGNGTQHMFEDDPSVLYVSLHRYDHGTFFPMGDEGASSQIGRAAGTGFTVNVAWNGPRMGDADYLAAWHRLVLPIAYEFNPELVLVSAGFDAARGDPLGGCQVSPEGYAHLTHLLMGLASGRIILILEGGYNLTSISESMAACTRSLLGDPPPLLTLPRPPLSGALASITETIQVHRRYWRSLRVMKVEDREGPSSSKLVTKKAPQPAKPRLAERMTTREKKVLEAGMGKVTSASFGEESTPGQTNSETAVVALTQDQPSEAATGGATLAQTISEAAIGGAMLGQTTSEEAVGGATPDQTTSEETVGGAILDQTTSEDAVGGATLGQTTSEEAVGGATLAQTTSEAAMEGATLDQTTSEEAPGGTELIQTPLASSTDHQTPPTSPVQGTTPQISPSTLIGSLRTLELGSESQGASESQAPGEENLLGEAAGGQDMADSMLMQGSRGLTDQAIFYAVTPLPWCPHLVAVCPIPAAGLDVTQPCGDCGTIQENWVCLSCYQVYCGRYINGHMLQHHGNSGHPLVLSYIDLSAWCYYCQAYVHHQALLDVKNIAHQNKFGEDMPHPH
# [3] = target: T2, USP16-UBD (USP16 25-185) (Homo sapiens, UniProt Q9Y5T5); assay: SPR, steady state; type: binding
# [4] = target: T2, USP16-UBD (USP16 25-185); assay: biochemical; set-up: SPR, steady-state binding to immobilised biotinylated UBD proteins; conditions: read-out: Negative Control KD (nM) SGC-UBD1031N
# [5] = target: T3, USP16-FL (USP16 1-823) (Homo sapiens, UniProt Q9Y5T5); assay: ubiquitin-rhodamine110 DUB assay; type: biochemical; conditions: […] ubiquitin-rhodamine-[…] enzyme, pH […], up to […] compound
# T3 construct: full length 1-823, pFBOH-LIC, Sf9 baculovirus, Ni-NTA and MonoQ
# [6] = target: T1, NanoLuc-tagged HDAC6; assay: NanoBRET displacement of HaloTag-ISG15; type: cell-based; conditions: HEK293T cells, […]
# [7] = target: T4, NanoLuc-tagged USP16 (Homo sapiens, UniProt Q9Y5T5); assay: NanoBRET displacement of HaloTag-ISG15; type: cell-based; conditions: HEK293T cells, […]
# T4 construct: N-terminal NanoLuc fusion in HEK293T
# T4 sequence (Q9Y5T5 whole entry, the tested form may be a part): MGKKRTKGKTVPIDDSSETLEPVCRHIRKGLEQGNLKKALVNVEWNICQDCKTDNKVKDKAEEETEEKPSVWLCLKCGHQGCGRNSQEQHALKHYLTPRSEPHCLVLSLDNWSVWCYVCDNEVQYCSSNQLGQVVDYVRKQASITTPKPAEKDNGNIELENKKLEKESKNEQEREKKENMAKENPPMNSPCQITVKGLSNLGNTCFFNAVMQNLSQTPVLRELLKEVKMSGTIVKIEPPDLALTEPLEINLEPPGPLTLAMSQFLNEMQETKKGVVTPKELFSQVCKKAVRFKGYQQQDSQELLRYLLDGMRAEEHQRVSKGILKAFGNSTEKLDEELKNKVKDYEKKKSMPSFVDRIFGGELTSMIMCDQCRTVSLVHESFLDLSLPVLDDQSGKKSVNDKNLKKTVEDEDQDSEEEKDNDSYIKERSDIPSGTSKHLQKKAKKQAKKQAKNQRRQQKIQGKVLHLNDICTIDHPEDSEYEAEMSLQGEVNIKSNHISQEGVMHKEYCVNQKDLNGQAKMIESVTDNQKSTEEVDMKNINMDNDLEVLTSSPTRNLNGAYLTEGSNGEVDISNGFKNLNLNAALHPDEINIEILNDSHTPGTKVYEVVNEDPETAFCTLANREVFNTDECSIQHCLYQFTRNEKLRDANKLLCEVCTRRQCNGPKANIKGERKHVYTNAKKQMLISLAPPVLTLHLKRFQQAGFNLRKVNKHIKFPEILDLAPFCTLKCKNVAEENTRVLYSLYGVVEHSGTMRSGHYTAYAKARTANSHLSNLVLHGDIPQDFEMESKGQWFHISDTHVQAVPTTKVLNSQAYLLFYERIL
# T2 sequence (Q9Y5T5 25-185): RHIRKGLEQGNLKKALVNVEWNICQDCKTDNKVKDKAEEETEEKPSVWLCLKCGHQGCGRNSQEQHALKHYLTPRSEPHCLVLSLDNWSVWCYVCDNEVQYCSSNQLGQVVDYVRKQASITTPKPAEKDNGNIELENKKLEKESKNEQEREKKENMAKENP
# T3 sequence (Q9Y5T5 whole entry): as the sequence (Q9Y5T5 whole entry, the tested form may be a part) above
# Sequence of USP16-UBD (USP16 8-185) (Q9Y5T5 8-185): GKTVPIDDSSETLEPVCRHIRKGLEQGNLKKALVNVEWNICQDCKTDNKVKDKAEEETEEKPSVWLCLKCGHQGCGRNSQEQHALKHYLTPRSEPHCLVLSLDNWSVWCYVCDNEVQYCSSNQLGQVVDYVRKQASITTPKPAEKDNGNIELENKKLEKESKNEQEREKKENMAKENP
Kd [1] [nM],IC50 [2] [nM],Kd [3] [nM],Kd [4] [nM],Structure (SMILES),ubiquitin-rhodamine110 DUB assay [5],NanoBRET displacement of HaloTag-ISG15 [6],NanoBRET displacement of HaloTag-ISG15 [7]
50,1500 ± 200,48,–,"C[C@H](NC(=O)Cn1c(CCC(=O)O)nc2c(Cl)cccc2c1=O)c1c(F)cccc1F [compound 15, (S)-3-(8-chloro-3-(2-((1-(2,6-difluorophenyl)ethyl)amino)-2-oxoethyl)-4-oxo-3,4-dihydroquinazolin-2-yl)propanoic acid]",–,–,–
–,–,–,1770 ± 300,"C[C@@H](NC(=O)Cn1c(CCC(=O)O)nc2c(Cl)cccc2c1=O)c1c(F)cccc1F [compound 16, (R)-3-(8-chloro-3-(2-((1-(2,6-difluorophenyl)ethyl)amino)-2-oxoethyl)-4-oxo-3,4-dihydroquinazolin-2-yl)propanoic acid]",the negative control shows no inhibition of DUB activity,SGC-UBD1031N did not inhibit the interaction of HDAC6 or USP16 and ISG15,SGC-UBD1031N did not inhibit the interaction of HDAC6 or USP16 and ISG15
